Test results: US20220348590A1, “CYCLOOXYGENASE-2 INHIBITORS AND USES THEREOF” (The Board Institute, Inc., priority 2019, published 2022)
Where two headings read alike, the source gives them in different places.

Target: T1, human recombinant COX2 (hCOX2) (UniProt P35354)
T1 sequence (P35354 1-604): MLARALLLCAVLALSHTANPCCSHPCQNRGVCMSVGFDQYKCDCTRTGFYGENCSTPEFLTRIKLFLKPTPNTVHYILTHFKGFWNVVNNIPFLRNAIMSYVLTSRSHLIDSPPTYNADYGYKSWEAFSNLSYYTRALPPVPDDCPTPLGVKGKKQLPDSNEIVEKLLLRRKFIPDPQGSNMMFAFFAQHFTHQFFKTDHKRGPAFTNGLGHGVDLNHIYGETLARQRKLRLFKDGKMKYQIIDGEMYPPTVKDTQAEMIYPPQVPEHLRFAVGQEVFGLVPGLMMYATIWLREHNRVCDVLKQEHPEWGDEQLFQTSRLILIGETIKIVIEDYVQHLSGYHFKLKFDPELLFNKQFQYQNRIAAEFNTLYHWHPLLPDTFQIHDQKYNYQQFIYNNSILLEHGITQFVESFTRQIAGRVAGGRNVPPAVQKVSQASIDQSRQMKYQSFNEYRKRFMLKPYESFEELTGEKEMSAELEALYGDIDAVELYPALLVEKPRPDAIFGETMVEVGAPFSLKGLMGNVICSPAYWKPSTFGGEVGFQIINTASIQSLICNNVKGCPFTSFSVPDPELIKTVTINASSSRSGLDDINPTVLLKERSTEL
Experiment: LCMS-based COX2 enzymatic inhibition assay (PGE2 quantification)
Type: biochemical
Set-up: COX2 2 minutes pge2/pge2d4 area ratio Avg; other: 2 minutes; readout pge2/pge2d4 area ratio; average; COX2 2 minutes pge2/pge2d4 area ratio Avg; LLE; average LLE; COX2 2 minutes pge2 area (counts) Avg; readout pge2 area (counts); other: 2 min; "ovine COX2 (oCOX2), human recombinant COX2 (hCOX2)"
Conditions: for IC50: average
Summary of the method: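 PGE2 formed from arachidonic acid (final 5 μM, 2 min) was measured by LC-MS-MS against DMSO controls. Enzyme (oCOX-1 0.1 μg or hCOX2 0.2 μg) with hematin/epinephrine cofactors at pH 8.0 was given 10 min at 37 °C with compound first. Twelve-point curves run three times gave IC50.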

[1] = 2 minutes, readout pge2/pge2d4 area ratio, average LLE
[2] = 2 minutes, readout pge2/pge2d4 area ratio, read-out: COX2 2 minutes pge2/pge2d4 area ratio Avg. IC50
[3] = 2 minutes, readout pge2 area (counts), average LLE
[4] = 2 minutes, readout pge2 area (counts), read-out: COX2 2 minutes pge2 area (counts) Avg. IC50

| COX2 2 minutes pge2/pge2d4 area ratio Avg. LLE [1] | IC50 [2] | COX2 2 minutes pge2 area (counts) Avg. LLE [3] | IC50 [4] | COX2 10 minutes pge2 area (counts) Avg. LLE (10 minutes, readout pge2 area (counts), average LLE) | IC50 (10 minutes, readout pge2 area (counts), read-out: COX2 10 minutes pge2 area (counts) Avg. IC50) | SMILES |
| --- | --- | --- | --- | --- | --- | --- |
| 4.632 | 3.16 µM | 4.621 | 3.33 µM |  |  | Cn1ccc(CNc2cncc(-c3ccc(S(C)(=O)=O)cc3)n2)n1 [Compound 245] |
| 4.306 | 3.27 µM | 4.2875 | 3.41 µM |  |  | CS(=O)(=O)c1ccc(-c2cncc(NCc3ncco3)n2)cc1 [Compound 246] |
| 1.819 | 3.36 µM | 1.724 |  |  |  | CS(=O)(=O)c1ccc(-c2cccc(/C=C/c3ccoc3)n2)cc1 [Compound 247] |
| 3.159 | 3.36 µM | 3.163 | 3.3 µM |  |  | CC(=O)c1ncc(NCc2cccs2)nc1-c1ccc(S(C)(=O)=O)cc1 [Compound 248] |
| 3.529 | 3.44 µM | 3.534 | 3.47 µM |  |  | CS(=O)(=O)c1ccc(-c2cccc(NCc3ccco3)n2)cn1 [Compound 250] |
| 3.082 | 3.7 µM | 2.9649 | 4.84 µM |  |  | CS(=O)(=O)c1ccc(-c2cccc([S@+]([O-])Cc3cccs3)n2)cc1 [Compound 251] |
| 4.199 | 3.72 µM | 4.054 |  |  |  | CS(=O)(=O)c1ccc(-c2cncc(OC[C@H]3CCCO3)n2)cc1 [Compound 252] |
| 3.075 | 3.93 µM |  |  |  |  | CS(=O)(=O)c1ccc(-c2cccc(NCc3cocn3)n2)cc1 [Compound 254] |
| 3.111 | 4.01 µM | 3.485 | 1.93 µM |  |  | CS(=O)(=O)c1ccc(-c2cnnc(OCc3ccco3)c2)cc1 [Compound 255] |
|  | 4.04 µM |  | 4.56 µM |  |  | CS(=O)(=O)c1ccc(-c2nc3cnn(Cc4cccs4)c3[nH]2)cc1 [Compound 256] |
| 4.28 | 4.09 µM | 4.347 | 3.49 µM |  |  | CS(=O)(=O)c1ccc(-c2nc(NCc3cccs3)cnc2C(N)=O)cc1 [Compound 257] |
| 3.44 | 4.1 µM | 3.462 | 3.9 µM |  |  | CS(=O)(=O)c1ccc(-c2cncc(SCc3cocn3)n2)cc1 [Compound 258] |
| 1.917 | 4.15 µM | 2.088 | 3.25 µM |  |  | COc1cc(S(C)(=O)=O)ccc1-c1cccc(NCc2cccs2)n1 [Compound 259] |
| 4.221 | 4.26 µM | 4.307 | 2.35 µM |  |  | COc1ncc(-c2ccc(S(C)(=O)=O)cc2)nc1NCc1ccccn1 [Compound 260] |
| 4.063 | 4.55 µM | 4.034 |  |  |  | CS(=O)(=O)c1ccc(-c2cnc(C(=O)O)c(NCc3cccs3)n2)cc1 [Compound 261] |
| 3.643 | 4.57 µM | 3.693 | 4.04 µM | 3.59 | 5.13 µM | CS(=O)(=O)c1ccc(-c2cncc(N3CCCCC3)n2)cc1 [Compound 262] |
| 4.417 | 4.61 µM | 4.469 | 4.09 µM |  |  | CS(=O)(=O)c1ccc(-c2cncc(NC[C@H]3CCCO3)n2)cc1 [Compound 263] |
| 2.63 | 4.62 µM | 2.705 | 4.13 µM |  |  | CS(=O)(=O)c1ccc(-c2cccc(NCc3ccn[nH]3)n2)cc1 [Compound 264] |
